Experiment [1] has as its system RKO. Briefly: cells. In kind it is cell-based.
The test system of experiment [2] is SNU-C1. Briefly: cells. The experiment is classed as cell-based. The note with it: for IC50: read-out: Basal_Viability ATP SNU-C1 summarized IC50.
The subject of experiment [3] is DLD-1. Nature of the experiment: cells. In kind it is cell-based.
Experiment [4] deals with SW480. Briefly: cells. The experiment is classed as cell-based.
Experiment [5] has as its system Colo320. Briefly: cells. The experiment is classed as cell-based.
In experiment [6] the test system is HCT116. Briefly: cells. In kind it is cell-based.
Experiment [7] has as its system HCT116 cells treated with a GSK3β inhibitor. Nature of the experiment: cells. The experiment is classed as cell-based. Conditions: read-out: GSK3b inh pretreated_Viability ATP HCT116 summarized IC50.
Experiment [8] has as its system HeLa cells. Briefly: cells. In kind it is cell-based.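 As to Hela CellCycMod PI 4N summarized IC50: value tracks stimulation of 4N DNA content.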
Experiment [9] concerns ECFC/ADSC co-culture cell nuclei number.
Experiment [10] concerns endothelial tube formation in co-cultures of ECFCs and ADSCs treated with VEGF. Briefly: cells. In kind it is cell-based, human.

The record followed here is paper PMC4503722, “Novel Phenotypic Outcomes Identified for a Public Collection of Approved Drugs from a Publicly Accessible Panel of Assays” (PLoS ONE, 2015).

Where two headings read alike, the source gives them in different places.

Regarding `C=C(CC)C(=O)c1ccc(OCC(=O)O)c(Cl)c1Cl` [NCGC00016260-13], the IC50 was above 6.67 µM in experiment [1] (read-out: Basal_Viability ATP RKO summarized IC50); above 20 µM in [2]; 11.9 µM in experiment [3] (read-out: Basal_Viability ATP DLD-1 summarized IC50); above 6.67 µM in experiment [4] (read-out: Basal_Viability ATP SW480 summarized IC50); above 20 µM in experiment [5] (read-out: Basal_Viability ATP Colo 320 summarized IC50); above 20 µM in experiment [6] (read-out: Basal_Viability ATP HCT116 summarized IC50). Moreover, the IC50 in experiment [7] was found to be 12.2 µM.

In the case of `CN(Cc1cnc2nc(N)nc(N)c2n1)c1ccc(C(=O)N[C@@H](CCC(=O)O)C(=O)O)cc1` [NCGC00025060-15], the IC50 in [8] (assay number 14, 2N, read-out: Hela CellCycMod PI 2N summarized IC50) is above 10 µM; in experiment [8] (assay number 15, S phase, read-out: Hela CellCycMod PI S Phase summarized IC50) it was above 10 µM; in experiment [8] (assay number 16, 4N, read-out: Hela CellCycMod PI 4N summarized IC50), above 10 µM; in [8] (assay number 17, MI, read-out: Hela CellCycMod PI MI summarized IC50), above 10 µM; in experiment [8] (assay number 18, cell number, read-out: Hela CellCycMod PI Cell Number summarized IC50) it was above 10 µM; in [2] (assay number 30, basal), above 20 µM. Moreover, the IC50 in experiment [9] (read-out: VEGF_ADSC\ECFC Angio Hoechst NucArea summarized IC50) and in experiment [10] (read-out: VEGF_ADSC\ECFC Angio CD31 TubeArea summarized IC50) was above 10 µM in each case.

Consider `c1cnc2cc3c(cc2n1)C1CNCC3C1` [NCGC00247735-02], for which the “Basal_Viability ATP DLD-1 IC50/EC50” value in experiment [3] (assay number 23, basal) was above 6.6667 µM. The “Basal_Viability ATP SW480 IC50/EC50” value in experiment [4] (assay number 24, basal) is given as above 6.6667 µM. In experiment [5] (assay number 27, basal), the “Basal_Viability ATP Colo 320 IC50/EC50” value is reported as above 20 µM. For the same compound, the “Basal_Viability ATP HCT116 IC50/EC50” value in experiment [6] (assay number 25, basal) is on record as above 20 µM.

With `COc1ccc(-n2nc(CCC(=O)N(C)O)cc2-c2ccc(Cl)cc2)cc1` [NCGC00253573-01], in [1], the “Basal_Viability ATP RKO IC50/EC50” value stood at 4.1076 µM. Besides, the “Basal_Viability ATP SNU-C1 IC50/EC50” value in [2] was 1.7479 µM. In experiment [3], the “Basal_Viability ATP DLD-1 IC50/EC50” value is recorded as 2.0757 µM. In [4], the “Basal_Viability ATP SW480 IC50/EC50” value was 2.8124 µM. Besides, the “Basal_Viability ATP Colo 320 IC50/EC50” value in [5] worked out at 0.6615 µM. For the same compound, the “Basal_Viability ATP HCT116 IC50/EC50” value in experiment [6] worked out at 6.5453 µM.

Regarding `Nc1nc(=O)n([C@@H]2O[C@H](CO)[C@@H](O)[C@@H]2F)cc1I` [NCGC00262963-01], in [8] (assay number 14, 2N), the “Hela CellCycMod PI 2N IC50/EC50” value is listed as above 10 µM. The “Hela CellCycMod PI S Phase IC50/EC50” value in experiment [8] (assay number 15, S phase) is above 10 µM. Moreover, the “Hela CellCycMod PI 4N IC50/EC50” value in [8] (assay number 16, 4N) was above 10 µM. In [8] (assay number 17, MI), the “Hela CellCycMod PI MI IC50/EC50” value was above 10 µM. For the same compound, the “Hela CellCycMod PI Cell Number IC50/EC50” value in [8] (assay number 18, cell number) was 8.504 µM. Also, the “VEGF_ADSC\ECFC Angio Hoechst NucArea IC50/EC50” value in experiment [9] was above 10 µM. Also, the “VEGF_ADSC\ECFC Angio CD31 TubeArea IC50/EC50” value in experiment [10] came out at 3.4717 µM.

Regarding `CO[C@@H]1[C@@H](OC)[C@H](C)[C@@](O)(CC(=O)O)O[C@H]1[C@H](C)[C@H]1O[C@@]2(CC[C@@](C)([C@H]3CC[C@@](C)([C@@H]4O[C@@H]([C@H]5O[C@](C)(O)[C@H](C)C[C@@H]5C)C[C@@H]4OC4C[C@H](OC)[C@@H](OC)[C@H](C)O4)O3)O2)C[C@H](O)[C@H]1C.N` (stereo partly shown) [NCGC00263563-01], the “Hela CellCycMod PI 2N IC50/EC50” value in [8] (assay number 14, 2N) is on record as above 10 µM. In experiment [8] (assay number 15, S phase), the “Hela CellCycMod PI S Phase IC50/EC50” value is above 10 µM. For the same compound, in experiment [8] (assay number 16, 4N), the “Hela CellCycMod PI 4N IC50/EC50” value was above 10 µM. For the same compound, the “Hela CellCycMod PI MI IC50/EC50” value in experiment [8] (assay number 17, MI) was above 10 µM. The “Hela CellCycMod PI Cell Number IC50/EC50” value in experiment [8] (assay number 18, cell number) worked out at 2.751 µM. In [9], the “VEGF_ADSC\ECFC Angio Hoechst NucArea IC50/EC50” value came out at 2.568 µM. In addition, the “VEGF_ADSC\ECFC Angio CD31 TubeArea IC50/EC50” value in experiment [10] is given as 0.2517 µM.

For `NCCNc1ccc(NCCN)c2c1C(=O)c1ccncc1C2=O` [NCGC00274280-01], in experiment [8] (assay number 14, 2N), the “Hela CellCycMod PI 2N IC50/EC50” value was determined as 0.042 µM. The “Hela CellCycMod PI 4N IC50/EC50” value in experiment [8] (assay number 16, 4N) stood at 0.04829 µM. The “Hela CellCycMod PI MI IC50/EC50” value in [8] (assay number 17, MI) is above 10 µM. In addition, the “Hela CellCycMod PI Cell Number IC50/EC50” value in experiment [8] (assay number 18, cell number) is recorded as 0.04206 µM. In addition, the “VEGF_ADSC\ECFC Angio Hoechst NucArea IC50/EC50” value in experiment [9] is recorded as above 10 µM. Besides, in experiment [10], the “VEGF_ADSC\ECFC Angio CD31 TubeArea IC50/EC50” value is recorded as 0.0465 µM.

As for `CCCCCCCCCCCCCCCC[N+](C)(C)Cc1ccccc1.[Cl-]` [NCGC00344524-01], in experiment [8] (assay number 14, 2N), the “Hela CellCycMod PI 2N IC50/EC50” value is reported as above 10 µM. For the same compound, the “Hela CellCycMod PI S Phase IC50/EC50” value in experiment [8] (assay number 15, S phase) is above 10 µM. Also, in [8] (assay number 16, 4N), the “Hela CellCycMod PI 4N IC50/EC50” value is above 10 µM. Further, the “Hela CellCycMod PI MI IC50/EC50” value in [8] (assay number 17, MI) is recorded as above 10 µM. For the same compound, the “Hela CellCycMod PI Cell Number IC50/EC50” value in experiment [8] (assay number 18, cell number) is listed as above 10 µM. Besides, in experiment [9], the “VEGF_ADSC\ECFC Angio Hoechst NucArea IC50/EC50” value was above 10 µM. Further, in experiment [10], the “VEGF_ADSC\ECFC Angio CD31 TubeArea IC50/EC50” value is given as 2.5333 µM.

The term IC50 denotes the concentration that gives 50% inhibition.
